{
  "source": "patent US20030004126A1",
  "about": "“Formulations of adenosine A1 agonists” (priority 1999, published 2003)",
  "key": {"[1]": {"tested_on": "Male Random Hooded rats", "experiment": "Carrageenan model: carrageenan-induced decrease in weight bearing (allodynia) and paw oedema", "format": "in vivo", "conditions": "Compound A orally, dosed with morphine subcutaneously; rat, 3 hours after intraplantar 2% carrageenan; dual channel weight averager", "method": "(a) Carrageenan Model for 5′-Deoxy-5′-fluoro-N-(tetrahydro-pyran-4-yl)-adenosine (Adenosine A1 Agonist) and Morphine\nMale Random Hooded rats (180-220 g) were used. The test compound or vehicle was administered 30 mins before the 2nd test compound or vehicle. The test compounds and vehicles used were: (i) Compound A in 0.25% methyl cellulose and (ii) Morphine was made up in saline. Compound A was administered orally. Morphine was administered subcutaneously. After a further 30 mins 100 ul of 2% carrageenan was injected intraplantar into the left hind paw and the animals were then returned to their cages. Three hours later behavioural testing of the carrageenan-induced decrease in weight on the inflamed left hind paw (% weight on the inflammed left hind paw) and associated oedema was assessed. Weight bearing was measured using the dual channel weight averager and paw oedema was assessed using a plethysmometer. The dual channel weight averager is commercially available and is described in the following abstract: Validation of the dual channel weight averager as an instrument for the measurement of inflammatory pain, N. M. Clayton et al., 1997 British Journal Pharmacol. 120, 219P\nNote: In the absense of pain, weight on the hind paws would be evenly distributed, i.e. 50% on each hind paw. […]"}, "[2]": {"tested_on": "rats", "experiment": "Nociceptive study using an algesymeter (normal nociceptive thresholds)", "format": "in vivo", "conditions": "Compound A in combination with morphine, rat", "method": "(b) Nociceptive Study for 5′-Deoxy-5′-fluoro-N-(tetrahydro-pyran4-yl)-adenosine (Adenosine A1 Agonist) and morphine\nNociception studies were carried out using an algesymeter (Randal, L et. al ([…]). Arch. Int. Pharmacodyn., 61 409-419. Variations in the rats normal nociceptive thresholds were studied."}},
  "data": [
    {"smiles": "O[C@@H]1[C@H](O)[C@@H](CF)O[C@H]1n1cnc2c(NC3CCOCC3)ncnc21", "note": "[5′-Deoxy-5′-fluoro-N-(tetrahydro-pyran-4-yl)-adenosine]", "values": [
      {"measurement": "effect against the carrageenan-induced decrease in weight bearing", "setting": "[1]", "value": "at least an additive effect"},
      {"measurement": "effect on normal nociceptive levels (nociceptive threshold)", "setting": "[2]", "value": "significantly increased the normal nociceptive levels of the rat producing at least an additive if not synergistic effect"}
    ]}
  ]
}
